Several values for one entry are separate records, joined by “and”; a condition that tells them apart may be missing. Equal values may be shown once. Read-outs that look alike come from different tables or passages of the source.
Experiment: Pharmacokinetics after repeated oral administration of 35 μg/kg of fluralaner in dogs after feeding
Assay type: in vivo, beagle dogs
Details: for concentration at 24 h / concentration at 48 h / concentration at 72 h / concentration at 96 h / concentration at 120 h / concentration at 240 h / concentration at 360 h / concentration at 480 h: po, 35 μg/kg
Procedure: The first objective of the study was to obtain the pharmacokinetic parameters after repeated oral administration of 35 μg/kg of fluralaner in dogs, 30 to 35 minutes after feeding.
The second objective was to investigate the pharmacodynamics between the fluralaner plasmatic dose and the effectiveness against fleas. • IVP: Investigational Veterinary Product, is pure Fluralaner+DMSO (35 μg/kg on Days 0 to 3 (0.35 mL/kg)) • Control product is DMSO (0.35 mL/kg on Days 0 to 3)
On Days 0, 1, 2 and 3, all dogs assigned to group 2 received the Investigational Veterinary Product. On Days 0 to 3 all dogs in group 1 received the control product at a volume equal to the dogs in group 2. Dogs assigned to group 1 received the control product and served as Placebo controls. The quantity of Investigational Veterinary Product and control product administered was calculated according to the dog's individual body weight measured on Day −1.
Blood samples were taken from all dogs prior to Investigational Veterinary Product treatment or control product administration on Day 0 and on Days 1 (+24 hours), 2 (+48 hours), 3 (+72 hours), 4 (+96 hours), 5 (+120 hours), 10 (+240 hours), 15 (+360 hours), 20 (+480 hours), 24 (+576 hours) and Day 28 (+672 hours).
On days of administration of pre-Investigational Veterinary Product or Control Product, dogs were fed (the same dog food) approximately half of their normal daily ration 30 minutes to 35 minutes prior to administration. Food consumed by the time of administration was calculated and recorded. The remainder of their normal daily ration was fed immediately after administration.
The PK parameters of fluralaner were calculated using a non-compartmental approach.
The following rules were applied for the calculation of the PK parameters: • All the plasma concentrations, validated by the bioanalytical laboratory, were used for the PK analysis. • The actual blood sampling times were used throughout. • Concentrations below the Limit of Quantification (LOQ) value were considered as zero from time zero (pre-dose) up to the time at which the first quantifiable concentration above the LOQ value was observed. Concentrations below the LOQ value between two quantifiable concentrations were considered as missing. Trailing concentrations below the LOQ value were not used in calculations.
Cmax the observed maximum concentration in plasma measured after dosing.
tmax the time at which Cmax was apparent.
λz the terminal rate constant (λz) was estimated by log-linear regression analysis on data points visually assessed, to be on the terminal log-linear phase. For the slope of the terminal elimination phase to be accepted as reliable, the following criteria were used: • the terminal data points were apparently randomly distributed about a single straight line (on visual inspection), • a minimum of three data points, including the last measured data point and excluding Cmax, were available for the regression.
t1/2 the terminal plasma half-life (t1/2) was calculated according to the following equation: […]
AUC0-t the area under the concentration-time curve from time zero (pre-dose) to the time of last quantifiable concentration (t) was calculated using a linear trapezoidal method.
[AUC0-∞=AUC0-t+(Ct/λz)], where Ct was the observed concentration of drug for the last sample on the PK profile in which the drug was detected, and λz was as defined above.
The extrapolated area under the curve, expressed as a percentage of the total area, AUCinf, was also calculated as: Area Extra (%)=(AUC0-∞−AUC0-t)/AUC0-∞*100%.

## Cc1cc(C2=NOC(c3cc(Cl)cc(Cl)c3)(C(F)(F)F)C2)ccc1C(=O)NCC(=O)NCC(F)(F)F (centres unmarked) [fluralaner, Fluralaner]
24 h, oral 35 μg/kg Days 0-3, dogs
  fluralaner concentration levels, individual animal: 16.5 ng/mL and 16.9 ng/mL (2×) and 18.1 ng/mL and 19.0 ng/mL
48 h, oral 35 μg/kg Days 0-3, dogs
  fluralaner concentration levels, individual animal: 27.8 ng/mL and 32.2 ng/mL and 37.2 ng/mL and 35.2 ng/mL and 40.9 ng/mL
72 h, oral 35 μg/kg Days 0-3, dogs
  fluralaner concentration levels, individual animal: 60.6 ng/mL and 47.9 ng/mL and 61.0 ng/mL and 42.0 ng/mL and 57.7 ng/mL
96 h, oral 35 μg/kg Days 0-3, dogs
  fluralaner concentration levels, individual animal: 76.6 ng/mL and 91.6 ng/mL and 84.5 ng/mL and 71.8 ng/mL and 92.4 ng/mL
120 h, oral 35 μg/kg Days 0-3, dogs
  fluralaner concentration levels, individual animal: 60.1 ng/mL and 63.6 ng/mL and 55.6 ng/mL and 62.9 ng/mL and 70.0 ng/mL
240 h, oral 35 μg/kg Days 0-3, dogs
  fluralaner concentration levels, individual animal: 45.8 ng/mL and 34.1 ng/mL and 36.3 ng/mL and 51.6 ng/mL and 44.4 ng/mL
360 h, oral 35 μg/kg Days 0-3, dogs
  fluralaner concentration levels, individual animal: 39.2 ng/mL and 39.6 ng/mL and 43.5 ng/mL and 37.4 ng/mL and 35.2 ng/mL
480 h, oral 35 μg/kg Days 0-3, dogs
  fluralaner concentration levels, individual animal: 26.1 ng/mL and 17.1 ng/mL and 21.1 ng/mL and 26.6 ng/mL and 18.4 ng/mL
576 h, oral 35 μg/kg Days 0-3, dogs
  fluralaner concentration levels, individual animal: 22.0 ng/mL and 14.7 ng/mL and 15.0 ng/mL and 22.2 ng/mL and 13.3 ng/mL
672 h, oral 35 μg/kg Days 0-3, dogs
  fluralaner concentration levels, individual animal: 15.1 ng/mL and 9.1 ng/mL and 10.3 ng/mL and 16.0 ng/mL and 10.4 ng/mL
After the fourth dose of 35 μg/kg per day oral
  steady state concentrations: not reached
beagle, dog, plasma, 35 ug/kg, oral 35 μg/kg Days 0-3, dogs, read-out: Tmax, individual animal
  tmax: 96 h
beagle, dog, plasma, 24 h, oral 35 μg/kg Days 0-3, dogs, n=6, read-out: fluralaner concentration levels, GeoMean
  concentration at 24 h: 17.3 ng/mL
beagle, dog, plasma, 24 h, oral 35 μg/kg Days 0-3, dogs, n=6, read-out: fluralaner concentration levels, Maximum
  concentration at 24 h: 19 ng/mL
beagle, dog, plasma, 24 h, oral 35 μg/kg Days 0-3, dogs, n=6, read-out: fluralaner concentration levels, Mean
  concentration at 24 h: 17.4 ng/mL
beagle, dog, plasma, 24 h, oral 35 μg/kg Days 0-3, dogs, n=6, read-out: fluralaner concentration levels, Median
  concentration at 24 h: 16.9 ng/mL
beagle, dog, plasma, 24 h, oral 35 μg/kg Days 0-3, dogs, n=6, read-out: fluralaner concentration levels, Minimum
  concentration at 24 h: 18.5 ng/mL
beagle, dog, plasma, 24 h, oral 35 μg/kg Days 0-3, dogs, read-out: fluralaner concentration levels, individual animal
  concentration at 24 h: 16.7 ng/mL
beagle, dog, plasma, 48 h, oral 35 μg/kg Days 0-3, dogs, n=6, read-out: fluralaner concentration levels, GeoMean
  concentration at 48 h: 32.8 ng/mL
beagle, dog, plasma, 48 h, oral 35 μg/kg Days 0-3, dogs, n=6, read-out: fluralaner concentration levels, Maximum
  concentration at 48 h: 40.9 ng/mL
beagle, dog, plasma, 48 h, oral 35 μg/kg Days 0-3, dogs, n=6, read-out: fluralaner concentration levels, Mean
  concentration at 48 h: 33.2 ng/mL
beagle, dog, plasma, 48 h, oral 35 μg/kg Days 0-3, dogs, n=6, read-out: fluralaner concentration levels, Median
  concentration at 48 h: 33.7 ng/mL
beagle, dog, plasma, 48 h, oral 35 μg/kg Days 0-3, dogs, n=6, read-out: fluralaner concentration levels, Minimum
  concentration at 48 h: 26.1 ng/mL
beagle, dog, plasma, 48 h, oral 35 μg/kg Days 0-3, dogs, read-out: fluralaner concentration levels, individual animal
  concentration at 48 h: 26.1 ng/mL
beagle, dog, plasma, 72 h, oral 35 μg/kg Days 0-3, dogs, n=6, read-out: fluralaner concentration levels, GeoMean
  concentration at 72 h: 51.7 ng/mL
beagle, dog, plasma, 72 h, oral 35 μg/kg Days 0-3, dogs, n=6, read-out: fluralaner concentration levels, Maximum
  concentration at 72 h: 61 ng/mL
beagle, dog, plasma, 72 h, oral 35 μg/kg Days 0-3, dogs, n=6, read-out: fluralaner concentration levels, Mean
  concentration at 72 h: 52.3 ng/mL
beagle, dog, plasma, 72 h, oral 35 μg/kg Days 0-3, dogs, n=6, read-out: fluralaner concentration levels, Median
  concentration at 72 h: 52.8 ng/mL
beagle, dog, plasma, 72 h, oral 35 μg/kg Days 0-3, dogs, n=6, read-out: fluralaner concentration levels, Minimum
  concentration at 72 h: 42 ng/mL
beagle, dog, plasma, 72 h, oral 35 μg/kg Days 0-3, dogs, read-out: fluralaner concentration levels, individual animal
  concentration at 72 h: 44.6 ng/mL
beagle, dog, plasma, 96 h, oral 35 μg/kg Days 0-3, dogs, n=6, read-out: fluralaner concentration levels, GeoMean
  concentration at 96 h: 84 ng/mL
beagle, dog, plasma, 96 h, oral 35 μg/kg Days 0-3, dogs, n=6, read-out: fluralaner concentration levels, Maximum
  concentration at 96 h: 92.4 ng/mL
beagle, dog, plasma, 96 h, oral 35 μg/kg Days 0-3, dogs, n=6, read-out: fluralaner concentration levels, Mean
  concentration at 96 h: 84.4 ng/mL
beagle, dog, plasma, 96 h, oral 35 μg/kg Days 0-3, dogs, n=6, read-out: fluralaner concentration levels, Median
  concentration at 96 h: 87 ng/mL
beagle, dog, plasma, 96 h, oral 35 μg/kg Days 0-3, dogs, n=6, read-out: fluralaner concentration levels, Minimum
  concentration at 96 h: 71.8 ng/mL
beagle, dog, plasma, 96 h, oral 35 μg/kg Days 0-3, dogs, read-out: fluralaner concentration levels, individual animal
  concentration at 96 h: 89.4 ng/mL
beagle, dog, plasma, 120 h, oral 35 μg/kg Days 0-3, dogs, n=6, read-out: fluralaner concentration levels, GeoMean
  concentration at 120 h: 63.8 ng/mL
beagle, dog, plasma, 120 h, oral 35 μg/kg Days 0-3, dogs, n=6, read-out: fluralaner concentration levels, Maximum
  concentration at 120 h: 72.3 ng/mL
beagle, dog, plasma, 120 h, oral 35 μg/kg Days 0-3, dogs, n=6, read-out: fluralaner concentration levels, Mean
  concentration at 120 h: 64.1 ng/mL
beagle, dog, plasma, 120 h, oral 35 μg/kg Days 0-3, dogs, n=6, read-out: fluralaner concentration levels, Median
  concentration at 120 h: 63.2 ng/mL
beagle, dog, plasma, 120 h, oral 35 μg/kg Days 0-3, dogs, n=6, read-out: fluralaner concentration levels, Minimum
  concentration at 120 h: 55.6 ng/mL
beagle, dog, plasma, 120 h, oral 35 μg/kg Days 0-3, dogs, read-out: fluralaner concentration levels, individual animal
  concentration at 120 h: 72.3 ng/mL
beagle, dog, plasma, 240 h, oral 35 μg/kg Days 0-3, dogs, n=6, read-out: fluralaner concentration levels, GeoMean
  concentration at 240 h: 43.9 ng/mL
beagle, dog, plasma, 240 h, oral 35 μg/kg Days 0-3, dogs, n=6, read-out: fluralaner concentration levels, Maximum
  concentration at 240 h: 54.9 ng/mL
beagle, dog, plasma, 240 h, oral 35 μg/kg Days 0-3, dogs, n=6, read-out: fluralaner concentration levels, Mean
  concentration at 240 h: 44.5 ng/mL
beagle, dog, plasma, 240 h, oral 35 μg/kg Days 0-3, dogs, n=6, read-out: fluralaner concentration levels, Median
  concentration at 240 h: 45.1 ng/mL
beagle, dog, plasma, 240 h, oral 35 μg/kg Days 0-3, dogs, n=6, read-out: fluralaner concentration levels, Minimum
  concentration at 240 h: 34.1 ng/mL
beagle, dog, plasma, 240 h, oral 35 μg/kg Days 0-3, dogs, read-out: fluralaner concentration levels, individual animal
  concentration at 240 h: 54.9 ng/mL
beagle, dog, plasma, 360 h, oral 35 μg/kg Days 0-3, dogs, n=6, read-out: fluralaner concentration levels, GeoMean
  concentration at 360 h: 39.5 ng/mL
beagle, dog, plasma, 360 h, oral 35 μg/kg Days 0-3, dogs, n=6, read-out: fluralaner concentration levels, Maximum
  concentration at 360 h: 43.5 ng/mL
beagle, dog, plasma, 360 h, oral 35 μg/kg Days 0-3, dogs, n=6, read-out: fluralaner concentration levels, Mean
  concentration at 360 h: 39.6 ng/mL
beagle, dog, plasma, 360 h, oral 35 μg/kg Days 0-3, dogs, n=6, read-out: fluralaner concentration levels, Median
  concentration at 360 h: 39.4 ng/mL
beagle, dog, plasma, 360 h, oral 35 μg/kg Days 0-3, dogs, n=6, read-out: fluralaner concentration levels, Minimum
  concentration at 360 h: 35.2 ng/mL
beagle, dog, plasma, 360 h, oral 35 μg/kg Days 0-3, dogs, read-out: fluralaner concentration levels, individual animal
  concentration at 360 h: 42.8 ng/mL
beagle, dog, plasma, 480 h, oral 35 μg/kg Days 0-3, dogs, n=6, read-out: fluralaner concentration levels, GeoMean
  concentration at 480 h: 22.1 ng/mL
beagle, dog, plasma, 480 h, oral 35 μg/kg Days 0-3, dogs, n=6, read-out: fluralaner concentration levels, Maximum
  concentration at 480 h: 26.6 ng/mL
